From patent US6420367B1, “Pyrimidine derivatives exhibiting antitumor activity” (Shionogo & Co., Ltd., priority 1998, dated 2002)
≈ marks a conversion by molar mass, not a printed value.

Experiments:
[1] = tested on: DT-R cells (pRRE3-luc-transfected v-ki-ras-transformed NIH3T3 cells); signal derived from Ras oncogene products; assay: Inhibitory effect against cellular signaling derived from Ras oncogene products: luciferase reporter, dissociation of DT-R from DT-C activity (MAC); type: cell-based, mouse; settings: minimal tested concentration at which luciferase activities of DT-C cells and DT-R cells dissociated
Source text: Test Example 1 Inhibitory Effect Against Cellular Signaling Derived From Ras Oncogene Products
1) Establishment of Cell Lines Used in Assay
Based on the reporter plasmid (pGV-P (Toyo Ink, Japan)), in which luciferase gene was ligated to SV40-derived minimal promoter, we constructed a plasmid designated pRRE3-luc by inserting 3 copies of chemically synthesized oligonucleotides (Sequence: CAGGATATGACTCT, derived from mouse NVL-3 (M. A. Reddy et al.(1992)Mol. Endocrinol., 6, 1051)) into upstream of the promoter. v-ki-ras-transformed NIH3T3 cells (DT cells, provided by Dr. Makoto Noda (Kyoto Univ., School of medicine)) were transfected with this plasmid by liposome-mediated transfection and transfected cell lines stably incorporated and maintained each plasmid were obtained. We named pGV-P and pRRE3-transfected cell line as DT-C and DT-R, respectively and used in the assay described below.
2) Preparation of Samples
i) All the cell lines were cultured in Dulbecco's Modified Essential Medium (DMEM: 10% Fetal Calf Serum(FCS: Hyclone, USA)) including […] kanamycin (Meiji Seika, Japan) in humidified incubator under condition of 5% CO2 at 37° C.
ii) DT-C and DT-R cells were seeded at 2500 cells/well into flat-bottom 96 well multiplate (Sumitomo bakelite) and incubated for 24 hours.
iii) Test compounds were prepared as 1 mg/ml DMSO solution.
iv) The solution of test compounds were added to the culture. Tested compounds are used at the concentration from […] to 0.51 ng/ml with by 3-fold dilution.
v) After 24 hours, the culture supernatant was completely aspirated and […] of cell-lysing solution (PGC-50 (Toyo Ink, Japan)) was added before cells were dried up. In order to the cells were lysed completely, multiwell plates were left at room temperature for 10 to 30 min. The plates were wrapped up and stored at −20° C. till the day of measurement.
3) Measurement of Samples
i) Melt the samples by putting 96 well multiplate at 37° C. and add 90 μl/well 25 mM Tris (pH 7.5).
ii) Transfer 50 μl of the sample (110 μl) to the 96 well microplate for measurement (Microlite 1 (Dynatech)).
iii) Measure the samples by the luminometer, LUMINOUS CT9000D (Dia-Yatron, Japan). We used Pickagene luminescence kit PGL2000 or LT2.0 (Toyo Ink, Japan) as substrates for luminescence measurement (50 μl/well).
4) Judgment of the Results
i) The luciferase activity of DT-C cells and DT-R cells were plotted in the graph where the relative activity and the compound concentration were expressed as Y-axis and X-axis, respectively. We judged by the degree of dissociation between the activities of DT-C cells and DT-R cells as an index.
ii) Concretely, efficacy of the compound was expressed by two values described below.
a) Among the points of concentration tested, the minimal concentration (Minimal Active Concentration: MAC), at which the activities of DT-C cells and DT-R cells dissociated, was shown as an index of efficacy of the compound.

human colon cancer HT29 = assay: In vitro cell growth inhibition test, MTT assay; type: cell-based; settings: MTT assay 4 days after compound addition
Source text: (§1) Test Example 2 In Vitro Cell Growth Inhibition Test Cells and MTT Assay
(§2) Human squamous lung cancer […], human squamous lung cancer Ma44, human lung adenocarcinoma A549, human colon cancer HT29 and human pancreas cancer PANC-1 were used.

[2] = tested on: human lung adenocarcinoma A549; assay: In vitro cell growth inhibition test, MTT assay; type: cell-based; settings: MTT assay 4 days after compound addition
Source text: as §1, §2

[3] = tested on: human squamous lung cancer Ma44; assay: In vitro cell growth inhibition test, MTT assay; type: cell-based; settings: MTT assay 4 days after compound addition
Source text: as §1, §2

[4] = tested on: human squamous lung cancer RERF-RC-AI; assay: In vitro cell growth inhibition test, MTT assay; type: cell-based; settings: MTT assay 4 days after compound addition
Source text: as §1, §2

[5] = tested on: human pancreas cancer PANC-1; assay: In vitro cell growth inhibition test, MTT assay; type: cell-based; settings: MTT assay 4 days after compound addition
Source text: as §1, §2

| SMILES | MAC (Minimal Active Concentration) [1] | IC50, HT29 (human colon cancer HT29) | IC50, A549 [2] | IC50, Ma44 [3] | IC50, RERF-LC-AI [4] | IC50, PANC-1 [5] |
| --- | --- | --- | --- | --- | --- | --- |
| CCNC(=Nc1ncncc1CSc1nnc(-c2ccc(CC)cc2)o1)NCC [Compound A-114] | 1.11 µg/mL | 0.045 µg/mL (≈ 0.109 µM) | 0.32 µg/mL (≈ 0.778 µM) | 0.83 µg/mL (≈ 2.02 µM) | 0.029 µg/mL (≈ 0.0705 µM) | – |
| CCNC(=Nc1nc(C)ncc1CSc1nnc(-c2ccccc2)o1)NC [Compound A-21] | – | – | – | – | 0.02 µg/mL (≈ 0.0522 µM) | – |
| CCCc1ccc(-c2nnc(SCc3cncnc3N=C(NCC)NCC)o2)cc1 [Compound A-116] | – | 0.072 µg/mL (≈ 0.169 µM) | 3.8 µg/mL (≈ 8.93 µM) | 4.2 µg/mL (≈ 9.87 µM) | 0.62 µg/mL (≈ 1.46 µM) | – |
| CCNC(=Nc1ncncc1CSc1nnc(-c2ccc([N+](=O)[O-])cc2)o1)N(C)C [Compound A-190] | 0.0412 µg/mL | – | – | – | – | – |
| CCNC(N)=Nc1nc(C)ncc1CSc1nnc(-c2ccccc2NC(=O)CC)o1 [Compound A-22] | – | – | – | – | 0.02 µg/mL (≈ 0.0454 µM) | – |
| CCNC(=Nc1nc(C)ncc1CSc1nnc(-c2ccccc2NC)o1)NC [Compound A-38] | 0.0412 µg/mL | 0.023 µg/mL (≈ 0.0558 µM) | – | 0.034 µg/mL (≈ 0.0824 µM) | 0.014 µg/mL (≈ 0.0339 µM) | 0.028 µg/mL (≈ 0.0679 µM) |
| CCNC(=Nc1ncncc1CSc1nnc(-c2ccc(C(C)=O)cc2)o1)NCC [Compound A-117] | – | 0.017 µg/mL (≈ 0.04 µM) | 1.1 µg/mL (≈ 2.59 µM) | 8.6 µg/mL (≈ 20.2 µM) | 0.16 µg/mL (≈ 0.376 µM) | – |
| CCNC(N)=Nc1nc(C)ncc1CSc1nnc(-c2ccccc2N)o1 [Compound A-8] | – | 0.008 µg/mL (≈ 0.0208 µM) | 0.012 µg/mL (≈ 0.0312 µM) | – | 0.01 µg/mL (≈ 0.026 µM) | – |
| CCNC(=Nc1nc(C)ncc1CSc1nnc(-c2cc(F)ccc2N)o1)NCC [Compound A-50] | – | 0.09 µg/mL (≈ 0.209 µM) | – | 0.26 µg/mL (≈ 0.604 µM) | 0.047 µg/mL (≈ 0.109 µM) | – |
| CNC(N)=Nc1nc(C)ncc1CSc1nnc(-c2ccccc2NC(C)=O)o1 [Compound A-19] | – | – | – | – | 0.02 µg/mL (≈ 0.0485 µM) | – |
| CCNC(=Nc1nc(C)ncc1CSc1nnc(-c2ccccc2O)o1)NC [Compound A-27] | – | – | 0.69 µg/mL (≈ 1.73 µM) | 1 µg/mL (≈ 2.5 µM) | 0.079 µg/mL (≈ 0.198 µM) | – |
| CCNC(=Nc1nc(C)ncc1COc1nnc(-c2ccccc2N)o1)NC [Compound B-2] | 0.370 µg/mL | – | – | – | – | – |
| CCNC(N)=Nc1nc(C)ncc1CSc1nnc(-c2ccccc2NC(C)=O)o1 [Compound A-18] | – | – | – | – | 0.0022 µg/mL (≈ 0.00516 µM) | – |
| CCNC(=Nc1nc(C(F)(F)F)ncc1CSc1nnc(-c2ccccc2N)o1)NCC [Compound A-46] | – | 0.32 µg/mL (≈ 0.686 µM) | – | 1.8 µg/mL (≈ 3.86 µM) | 0.14 µg/mL (≈ 0.3 µM) | – |
| CCNC(=Nc1nc(C)ncc1CSc1nnc(-c2cccc(N)c2)o1)NCC [Compound A-41] | – | 0.072 µg/mL (≈ 0.175 µM) | – | 0.065 µg/mL (≈ 0.158 µM) | – | – |
| CCNC(=Nc1ncncc1CSc1nnc(-c2cnc(C)cn2)o1)NCC [Compound D-32] | – | 0.013 µg/mL (≈ 0.0325 µM) | 3.5 µg/mL (≈ 8.76 µM) | 3.1 µg/mL (≈ 7.76 µM) | 0.013 µg/mL (≈ 0.0325 µM) | – |
| CCCNC(=Nc1nc(C)ncc1CSc1nnc(-c2ccc(N)cc2OC)o1)NCCC [Compound A-156] | – | 0.023 µg/mL (≈ 0.0489 µM) | – | 0.072 µg/mL (≈ 0.153 µM) | 0.016 µg/mL (≈ 0.034 µM) | 0.025 µg/mL (≈ 0.0531 µM) |
| CCNC(=Nc1ncncc1CSc1nnc(-c2ccc([N+](=O)[O-])cc2Cl)o1)NCC [Compound A-126] | 0.0137 µg/mL | 0.014 µg/mL (≈ 0.0302 µM) | 0.028 µg/mL (≈ 0.0605 µM) | 0.17 µg/mL (≈ 0.367 µM) | 0.012 µg/mL (≈ 0.0259 µM) | – |
